Measured values from PubChem BioAssay (NCI).
Several values for one entry are separate records, joined by “and”; a condition that tells them apart may be missing. Identical values can stand only once.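 A five-concentration, 48-hour dose response in 96-well plates underlies each endpoint, interpolated linearly between surrounding concentrations. GI50 = concentration required for 50% inhibition of growth. Definition used: TGI = concentration required for complete inhibition of growth.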

Legend:
Assay in all cases: DTP human tumour cell line panel, 48 h
[1] = system: CCRF-CEM leukemia
[2] = system: HCT-15 colon
[3] = system: IGROV1 ovarian
[4] = system: LXFL 529 NSCLC
[5] = system: MDA-MB-435
[6] = system: RXF 393 renal
[7] = system: SF-539 CNS
[8] = system: SK-MEL-5 melanoma
[9] = system: SW-620 colon
[10] = system: DMS 114 small cell lung
[11] = system: DMS 273 small cell lung

Row | Structure (SMILES) | GI50 [1] | TGI [1] | GI50 [2] | TGI [2] | GI50 [3] | TGI [3] | TGI [4] | TGI [5] | GI50 [6] | TGI [6] | TGI [7] | TGI [8] | TGI [9] | TGI [10] | TGI [11] | GI50 [10] | GI50 [5] | GI50 [7] | GI50 [9] | GI50 [8]
1 | CCc1nc(N)nc(N)c1-c1ccc(Cl)c(N=[N+]=[N-])c1 | 0.898 µM and 3.89 µM | 31.9 µM and > 71.9 µM | 0.791 µM and 2.06 µM | > 100 µM | 2.09 µM and 4.22 µM | > 91.2 µM | > 100 µM | 36.7 µM and > 83.7 µM | 2.86 µM and 11.7 µM | 42.3 µM and 73.6 µM | > 39.9 µM and 65.3 µM | 19.1 µM and 18.2 µM | > 100 µM | – | – | – | – | – | – | –
2 | CCCCCCCCCCCc1c(O)c(=O)c2c(oc3c(=O)c(CCCCCCCCCCC)c(O)c(=O)c3n2-c2ccc(N(C)C)cc2)c1=O | – | 60.5 µM | – | 35.6 µM | – | 48.1 µM | 47.2 µM | – | – | 44.4 µM | 39.7 µM | 34 µM | 68.6 µM | 57.7 µM | 56.3 µM | – | – | – | – | –
3 | C#CCN(Cc1ccc2nc(-c3ccccc3)c(N)nc2c1)c1cc(OC)c(OC)c(OC)c1 | – | 44.8 µM | – | > 100 µM | – | > 100 µM | 91.2 µM | – | – | 96.2 µM | > 100 µM | 25.7 µM | > 100 µM | 37.7 µM | 42.8 µM | – | – | – | – | –
4 | COc1ccc(C(=O)C#Cc2c[nH]c(=O)[nH]c2=O)cc1 | – | 10.8 µM | – | 20.9 µM | – | > 62.9 µM | 12.2 µM | – | – | 18.3 µM | 19.3 µM | 27.9 µM | 26.7 µM | 46.7 µM | 30.4 µM | – | – | – | – | –
5 | COc1cccc(SSc2cccc(OC)c2C(=O)O)c1C(=O)O | – | > 100 µM | – | > 100 µM | – | > 100 µM | > 100 µM | – | – | > 100 µM | > 100 µM | > 100 µM | > 100 µM | > 100 µM | > 100 µM | – | – | – | – | –
6 | N#Cc1cccc(C=NC23CC4CC(CC(C4)C2)C3)c1 | – | > 100 µM | – | > 100 µM | – | > 100 µM | – | – | – | > 100 µM | > 100 µM | – | > 100 µM | > 100 µM | > 100 µM | – | – | – | – | –
7 | c1ccc(OCc2nnc3n2N=C(c2ccccc2)CS3)cc1 | – | > 100 µM | – | > 100 µM | – | > 100 µM | > 100 µM | – | – | > 100 µM | > 100 µM | > 100 µM | > 100 µM | > 100 µM | > 100 µM | – | – | – | – | –
8 | Cc1nc2cc(Nc3ccccc3C(=O)O)ccc2s1 | – | > 100 µM | – | > 100 µM | – | > 100 µM | > 100 µM | – | – | > 100 µM | > 100 µM | > 100 µM | > 100 µM | > 100 µM | > 100 µM | – | – | – | – | –
9 | COc1ccc(NC(=O)CC(=O)n2nc(C)c(N=Nc3ccccc3C(=O)O)c2C)cc1 | – | > 100 µM | – | > 100 µM | – | > 100 µM | > 100 µM | – | – | – | > 100 µM | > 100 µM | > 100 µM | > 100 µM | > 100 µM | – | – | – | – | –
10 | C[C@H](CCC1SC1(C)C)C1CCC2(C)C3=C(CC[C@]12C)[C@@]1(C)CC[C@H](O)C(C)(C)C1CC3 (stereo partly drawn) | – | > 100 µM | – | > 100 µM | – | > 100 µM | > 100 µM | – | – | > 100 µM | – | > 100 µM | > 100 µM | > 100 µM | > 100 µM | – | – | – | – | –
11 | CC(=O)NC(C=O)C(O[C@H](C)C(=O)NC(C)C(=O)NC(CCC(N)=O)C(=O)OCc1ccccc1)C(O)C(O)COC(=O)CCNc1c2ccccc2nc2cccc([N+](=O)[O-])c12 (stereo partly drawn) | – | 34.6 µM | – | 30 µM | – | > 100 µM | 3.58 µM | – | – | 12 µM | 20.2 µM | > 100 µM | 7.44 µM | 10.7 µM | 12 µM | – | – | – | – | –
12 | N#CC1=C(O)NC(O)=C(C#N)C1c1ccc(C2C(C#N)=C(O)NC(O)=C2C#N)cc1 | – | > 100 µM | – | > 100 µM | – | > 100 µM | > 100 µM | – | – | > 100 µM | > 100 µM | > 100 µM | > 100 µM | > 100 µM | > 100 µM | – | – | – | – | –
13 | NC(=S)N1N=C2c3ccccc3CC[C@H]2[C@@H]1c1ccc(Cl)cc1 | – | > 100 µM | – | > 100 µM | – | > 100 µM | > 100 µM | – | – | 84.3 µM | > 100 µM | – | > 100 µM | 70.6 µM | 73.3 µM | – | – | – | – | –
14 | CC(=O)c1ccc(NC(=O)C(=O)C(C#N)CC(C)(C)C=O)cc1 (stereo not drawn) | – | > 100 µM | – | > 100 µM | – | > 100 µM | > 100 µM | – | – | – | > 100 µM | > 100 µM | > 100 µM | – | – | – | – | – | – | –
15 | C=Cn1c([N+](=O)[O-])cnc1/C=C/c1ccc(C(=O)OCCN2CCOCC2)cc1 | – | > 100 µM | – | > 100 µM | – | > 100 µM | – | > 100 µM | – | > 100 µM | > 100 µM | > 100 µM | > 100 µM | – | – | – | – | – | – | –
16 | O=c1c2cc3c(cc2c2cccc4c2n1CCC4)OCO3 | – | > 100 µM | – | > 100 µM | – | > 100 µM | > 100 µM | – | – | 92.2 µM | > 100 µM | > 100 µM | > 100 µM | – | > 100 µM | – | – | – | – | –
17 | C=C(C(=C)P(=S)(C(C)C)C(C)C)P(=S)(C(C)C)C(C)C | – | > 100 µM | – | > 100 µM | – | > 100 µM | > 100 µM | – | – | > 100 µM | > 100 µM | > 100 µM | > 100 µM | > 100 µM | > 100 µM | – | – | – | – | –
18 | O=c1[nH]cnc2c(COCCO)c[nH]c12 | – | > 100 µM | – | > 100 µM | – | > 100 µM | > 100 µM | – | – | > 100 µM | > 100 µM | > 100 µM | > 100 µM | > 100 µM | > 100 µM | – | – | – | – | –
19 | COc1ccc2c(c1)-c1nn(CCCN(C)C)c3ccc([N+](=O)[O-])c(c13)N2 | 0.0825 µM and 0.624 µM | 6.45 µM and 8.72 µM | 0.142 µM and 0.541 µM | 2.38 µM and 13.5 µM | 0.215 µM and 0.507 µM | 3.48 µM and 6.59 µM | – | 2.9 µM | 0.274 µM and 0.135 µM | 1.33 µM and 2.05 µM | 3.17 µM and 7.49 µM | 2 µM and 2.92 µM | 4.69 µM and 3.65 µM | 4.24 µM and 13.8 µM | 1.86 µM and 4.99 µM | 0.202 µM and 0.543 µM | 0.165 µM and 0.593 µM | 0.163 µM and 0.602 µM | 0.0633 µM | –
20 | O=C(/C=C(\C(=O)c1cccs1)c1cccs1)c1ccc(C(=O)/C=C(\C(=O)c2cccs2)c2cccs2)cc1 | – | > 100 µM | – | > 100 µM | – | > 100 µM | – | > 100 µM | – | > 100 µM | > 100 µM | > 100 µM | > 100 µM | – | – | – | – | – | – | –
21 | N#CC(C#N)=C/C=C(\Sc1ccc(F)cc1Cl)c1ccc(Cl)cc1 | 0.107 µM | – | 0.425 µM | 1.58 µM | 1.81 µM | > 54.5 µM | – | 1.73 µM | 2.94 µM | > 100 µM | 3.59 µM | 8.58 µM | 3.82 µM | – | – | – | 0.35 µM | 0.391 µM | 0.387 µM | 2.59 µM
